The source of these data is ChEMBL document CHEMBL2007661, “Compounds: GSK PKIS; Assays: UNC Frye lab” (2012).

For assay [1], the target named is T1, Inhibitor of nuclear factor kappa-B kinase subunit beta (Homo sapiens) (UniProt O14920).
T1 sequence (whole entry): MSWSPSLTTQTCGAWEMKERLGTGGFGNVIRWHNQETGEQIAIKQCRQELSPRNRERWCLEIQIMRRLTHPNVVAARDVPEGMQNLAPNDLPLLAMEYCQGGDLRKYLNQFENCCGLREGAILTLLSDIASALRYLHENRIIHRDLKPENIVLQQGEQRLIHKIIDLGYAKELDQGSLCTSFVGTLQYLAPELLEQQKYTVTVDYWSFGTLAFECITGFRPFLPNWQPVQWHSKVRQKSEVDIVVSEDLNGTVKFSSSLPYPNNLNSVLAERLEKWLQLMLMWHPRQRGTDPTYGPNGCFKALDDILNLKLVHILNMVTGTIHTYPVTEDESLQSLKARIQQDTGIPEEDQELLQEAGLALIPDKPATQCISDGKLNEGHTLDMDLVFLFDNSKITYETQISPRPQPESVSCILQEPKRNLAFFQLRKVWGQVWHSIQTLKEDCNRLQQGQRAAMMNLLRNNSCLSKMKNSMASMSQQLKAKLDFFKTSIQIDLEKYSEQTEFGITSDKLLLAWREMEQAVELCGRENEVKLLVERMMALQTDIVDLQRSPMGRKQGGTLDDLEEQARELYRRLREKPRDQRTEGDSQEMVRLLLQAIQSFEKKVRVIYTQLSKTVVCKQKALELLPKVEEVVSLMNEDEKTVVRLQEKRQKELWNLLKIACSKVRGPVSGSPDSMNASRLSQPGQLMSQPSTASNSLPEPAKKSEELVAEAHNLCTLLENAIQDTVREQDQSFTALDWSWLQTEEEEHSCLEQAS
To be noted: at 1 µM.

The target of assay [2] is T2, Inhibitor of nuclear factor kappa-B kinase subunit epsilon (Homo sapiens) (UniProt Q14164).
T2 sequence (whole entry): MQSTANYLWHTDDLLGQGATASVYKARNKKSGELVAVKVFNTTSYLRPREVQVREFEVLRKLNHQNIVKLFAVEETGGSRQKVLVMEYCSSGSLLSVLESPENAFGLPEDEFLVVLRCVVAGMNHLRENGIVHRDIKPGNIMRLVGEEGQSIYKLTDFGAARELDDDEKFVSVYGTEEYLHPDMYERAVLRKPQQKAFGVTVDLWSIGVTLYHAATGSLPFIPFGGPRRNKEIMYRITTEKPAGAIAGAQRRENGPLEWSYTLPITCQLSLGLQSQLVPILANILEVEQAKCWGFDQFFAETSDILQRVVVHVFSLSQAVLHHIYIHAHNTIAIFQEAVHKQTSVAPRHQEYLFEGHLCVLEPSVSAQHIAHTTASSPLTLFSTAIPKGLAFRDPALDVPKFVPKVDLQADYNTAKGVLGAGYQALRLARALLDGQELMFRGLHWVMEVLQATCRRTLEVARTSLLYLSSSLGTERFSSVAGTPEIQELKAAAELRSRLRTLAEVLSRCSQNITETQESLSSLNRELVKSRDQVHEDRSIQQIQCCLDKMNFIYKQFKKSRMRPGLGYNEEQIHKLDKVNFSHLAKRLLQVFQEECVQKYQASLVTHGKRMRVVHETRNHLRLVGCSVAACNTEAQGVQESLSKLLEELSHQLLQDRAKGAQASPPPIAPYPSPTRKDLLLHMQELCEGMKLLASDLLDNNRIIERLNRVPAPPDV
As to conditions: at 1 µM.

The target of assay [3] is T3, Tyrosine-protein kinase Mer (Homo sapiens) (UniProt Q12866).
T3 sequence (whole entry): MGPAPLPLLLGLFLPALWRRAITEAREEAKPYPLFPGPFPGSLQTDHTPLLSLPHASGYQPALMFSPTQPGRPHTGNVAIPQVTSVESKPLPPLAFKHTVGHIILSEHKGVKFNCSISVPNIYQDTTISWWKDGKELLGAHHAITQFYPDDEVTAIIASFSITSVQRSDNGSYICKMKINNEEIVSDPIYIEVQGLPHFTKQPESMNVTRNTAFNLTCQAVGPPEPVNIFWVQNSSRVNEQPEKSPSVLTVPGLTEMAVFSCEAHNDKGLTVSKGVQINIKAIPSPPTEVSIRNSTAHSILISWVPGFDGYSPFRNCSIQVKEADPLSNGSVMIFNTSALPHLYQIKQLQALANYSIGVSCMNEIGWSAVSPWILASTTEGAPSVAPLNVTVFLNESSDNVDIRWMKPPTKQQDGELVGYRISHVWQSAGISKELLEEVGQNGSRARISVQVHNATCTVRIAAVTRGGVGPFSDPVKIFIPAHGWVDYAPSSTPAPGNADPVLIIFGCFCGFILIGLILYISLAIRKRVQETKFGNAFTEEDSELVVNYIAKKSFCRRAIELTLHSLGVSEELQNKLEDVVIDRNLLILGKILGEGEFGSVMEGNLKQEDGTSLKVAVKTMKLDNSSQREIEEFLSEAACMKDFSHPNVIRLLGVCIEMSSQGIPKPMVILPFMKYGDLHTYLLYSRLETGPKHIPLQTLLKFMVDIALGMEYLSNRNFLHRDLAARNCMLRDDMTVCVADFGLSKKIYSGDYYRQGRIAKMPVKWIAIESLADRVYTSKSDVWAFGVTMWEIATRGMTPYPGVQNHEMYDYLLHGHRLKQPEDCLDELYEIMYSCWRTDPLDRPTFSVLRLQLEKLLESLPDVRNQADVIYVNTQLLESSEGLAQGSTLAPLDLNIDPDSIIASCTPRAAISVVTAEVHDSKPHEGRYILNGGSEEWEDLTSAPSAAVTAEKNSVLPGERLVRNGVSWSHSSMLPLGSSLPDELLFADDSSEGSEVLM
To be noted: at 10 µM.

The structures appear in SMILES notation. Several values for one entry are separate records, joined by “and”; a condition that tells them apart may be missing. Equal values may be shown once.

The term inhibition denotes the relative decrease from the control value, in per cent. Take `Cc1ccc(C(=O)NC2CC2)cc1-c1ccc2[nH]ncc2c1`: the inhibition was 0% in assay [1]; 1% and -2% in assay [2]; 6% in assay [3].
On to `CN(C)c1cc2c(Nc3ccc4nc(Cc5ccccc5)[nH]c4c3)ncnc2cn1`, for which the inhibition in assay [1] was -2% and -3%; in assay [2] it was 0% and 6%; in assay [3], 2%.
With `FC(F)(F)c1cccc(-c2nn3ncccc3c2-c2ccnc(Nc3ccc4c(c3)OCCO4)n2)c1`, the inhibition was -3% and -2% in assay [1]; 3% and 0% in assay [2]; -2% in assay [3].
Consider `O=C1Nc2ccccc2/C1=C/Nc1ccc(-n2cncn2)cc1`, for which the inhibition is -5% and -4% in assay [1]; 18% in assay [2]; 10% in assay [3].
Turning to `O=C(Nc1n[nH]c2nc(-c3ccc(O)cc3)c(Br)cc12)C1CC1`, the inhibition in assay [1] was -4% and -2%; in assay [2] it was 4% and 6%; in assay [3], 39%.
For `CCn1c(-c2nonc2N)nc2c(C#CC(C)(C)O)nc(OC[C@H](N)c3ccccc3)cc21`, the inhibition in assay [1] is -4% and 1%; in assay [2], 36% and 35%; in assay [3], -2%.
Regarding `C/C(Nc1ccc(S(N)(=O)=O)cc1)=C1/C(=O)Nc2ccccc21`, the inhibition in assay [1] was -3% and -2%; in assay [2] it was 5% and 6%; in assay [3], -2%.
In the case of `CCNC(=O)O[C@H]1CN[C@H](C#Cc2cc3ncnc(Nc4ccc(OCc5cccc(F)c5)c(Cl)c4)c3s2)C1`, the inhibition in assay [1] was -5% and -3%; in assay [2], 1% and 3%; in assay [3] it was 2%.
For `NS(=O)(=O)c1cccc(N/C=C2\C(=O)Nc3ccccc32)c1`, the inhibition was -4% and -1% in assay [1]; 22% and 26% in assay [2]; 0% in assay [3].
Regarding `Fc1ccc(-c2cc(-c3c[nH]nc3-c3ccccn3)ccn2)cc1`, the inhibition in assay [1] is -4% and -2%; in assay [2] it was -1%; in assay [3], -3%.
Regarding `CS(=O)(=O)CCNCc1coc(-c2ccc3ncnc(Nc4ccc(OCc5ccccc5)cc4)c3c2)c1`, the inhibition was 0% and -1% in assay [1]; -1% and 0% in assay [2]; 84% in assay [3].
`CCOc1nccc2c1nc(-c1nonc1N)n2CC`: the inhibition in assay [1] is -2% and -3%; in assay [2], 2% and 0%; in assay [3] it was -3%.
`N#Cc1c(NC(=O)CN2CCOCC2)sc2c1CCCC2`: the inhibition in assay [1] was -1% and -3%; in assay [2], -2%; in assay [3], -1%.
For `CN(C)c1ccc2c(c1)/C(=C/Nc1ccc(S(N)(=O)=O)cc1)C(=O)N2`, the inhibition in assay [1] was -3%; in assay [2] it was 37% and 36%; in assay [3], 2%.
Take `Cc1ccc2c(-c3ccnc(Nc4ccc5c(c4)OCCO5)n3)c(-c3ccc(C(F)(F)F)cc3)nn2n1`: the inhibition in assay [1] is -1% and -5%; in assay [2], 0% and -3%; in assay [3], -5%.
